{"source": "patent US11352350B2", "about": "“IRAK degraders and uses thereof” (Kymera Therapeutics, Inc., priority 2018, dated 2022)", "key": {"[1]": {"test_system": "OCI-LY10 cells", "assay": "OCI-LY10 flow staining (Ki67, active Caspase-3, IRAK4)", "format": "cell-based, human", "details": "FIG. 4", "method": "OC1-LY10 cell line was cultured in IMDM medium supplemented with 20% FBS, B-ME and pen/strep. On Day 1, cells were plated at 200K per well in 96 well plates. Compounds were diluted to 1000× in DMSO, then further diluted to 100× in media, and added to cells at 4 concentrations over 4 different timepoints (24h, 48h, 72h and 96h). Timepoints were staggered so all cells were harvested and stained at the same time. Paclitaxel was added as a positive control and a DMSO control for each timepoint was also included. On day 5, plates were harvested and cells were fixed, permeabilized, and stored at −4 C until further processing. On day 8, the Ki67 plates were stained using KI-67-APC antibody (Biolegend, Cat #350514). The Caspase 3 plates were stained using the PE Active Caspase-3 Apoptosis Kit (BD Biosciences, Cat #550914) and the IRAK 4 plates were stained with Hu IRAK4 A^b Alexa 647 Clone: L29-525 antibody (BD, Cat #560315). Cells were resuspended in staining buffer and run on a Beckman Coulter CytoFlex 13 color Cytometer (Model #A00-1-1102, Serial #AS10086)."}, "[2]": {"test_system": "OCI-LY3", "assay": "OCI-LY3 viability, CTG", "format": "cell-based", "details": "Homo sapiens, MYD88 MUT"}, "[3]": {"assay": "Oral exposure / bioavailability of I-75", "format": "in vivo, rat, dog, and monkey", "details": "FIG. 11"}, "[4]": {"biological_target": "AIOLOS (Homo sapiens (Human), UniProt Q96SW2+Q9UKT9)", "sequence (Q9UKT9 whole entry)": "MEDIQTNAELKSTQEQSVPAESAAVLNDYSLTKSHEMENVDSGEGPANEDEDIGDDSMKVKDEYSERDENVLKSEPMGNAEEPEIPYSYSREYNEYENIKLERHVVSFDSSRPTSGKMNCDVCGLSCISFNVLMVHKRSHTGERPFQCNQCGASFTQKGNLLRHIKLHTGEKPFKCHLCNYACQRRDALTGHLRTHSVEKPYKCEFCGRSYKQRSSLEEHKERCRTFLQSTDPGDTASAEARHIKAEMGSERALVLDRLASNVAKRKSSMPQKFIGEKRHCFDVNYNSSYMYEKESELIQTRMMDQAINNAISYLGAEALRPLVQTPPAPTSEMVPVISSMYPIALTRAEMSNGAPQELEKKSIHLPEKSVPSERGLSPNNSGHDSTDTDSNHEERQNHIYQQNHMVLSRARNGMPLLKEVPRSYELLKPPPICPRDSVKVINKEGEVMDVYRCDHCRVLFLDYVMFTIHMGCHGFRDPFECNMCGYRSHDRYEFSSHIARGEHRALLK", "sequence (Q96SW2 whole entry)": "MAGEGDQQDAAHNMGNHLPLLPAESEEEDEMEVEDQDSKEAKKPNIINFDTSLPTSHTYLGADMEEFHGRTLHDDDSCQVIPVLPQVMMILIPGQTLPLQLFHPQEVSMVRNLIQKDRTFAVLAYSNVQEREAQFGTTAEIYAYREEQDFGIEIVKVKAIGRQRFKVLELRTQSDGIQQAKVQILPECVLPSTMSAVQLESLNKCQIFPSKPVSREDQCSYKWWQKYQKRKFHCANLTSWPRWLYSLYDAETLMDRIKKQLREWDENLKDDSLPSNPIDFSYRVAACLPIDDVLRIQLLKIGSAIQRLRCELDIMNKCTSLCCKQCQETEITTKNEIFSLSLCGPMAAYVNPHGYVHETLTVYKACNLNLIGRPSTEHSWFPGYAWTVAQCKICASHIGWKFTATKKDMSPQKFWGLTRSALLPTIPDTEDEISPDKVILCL", "sequence (Q16531 whole entry partner)": "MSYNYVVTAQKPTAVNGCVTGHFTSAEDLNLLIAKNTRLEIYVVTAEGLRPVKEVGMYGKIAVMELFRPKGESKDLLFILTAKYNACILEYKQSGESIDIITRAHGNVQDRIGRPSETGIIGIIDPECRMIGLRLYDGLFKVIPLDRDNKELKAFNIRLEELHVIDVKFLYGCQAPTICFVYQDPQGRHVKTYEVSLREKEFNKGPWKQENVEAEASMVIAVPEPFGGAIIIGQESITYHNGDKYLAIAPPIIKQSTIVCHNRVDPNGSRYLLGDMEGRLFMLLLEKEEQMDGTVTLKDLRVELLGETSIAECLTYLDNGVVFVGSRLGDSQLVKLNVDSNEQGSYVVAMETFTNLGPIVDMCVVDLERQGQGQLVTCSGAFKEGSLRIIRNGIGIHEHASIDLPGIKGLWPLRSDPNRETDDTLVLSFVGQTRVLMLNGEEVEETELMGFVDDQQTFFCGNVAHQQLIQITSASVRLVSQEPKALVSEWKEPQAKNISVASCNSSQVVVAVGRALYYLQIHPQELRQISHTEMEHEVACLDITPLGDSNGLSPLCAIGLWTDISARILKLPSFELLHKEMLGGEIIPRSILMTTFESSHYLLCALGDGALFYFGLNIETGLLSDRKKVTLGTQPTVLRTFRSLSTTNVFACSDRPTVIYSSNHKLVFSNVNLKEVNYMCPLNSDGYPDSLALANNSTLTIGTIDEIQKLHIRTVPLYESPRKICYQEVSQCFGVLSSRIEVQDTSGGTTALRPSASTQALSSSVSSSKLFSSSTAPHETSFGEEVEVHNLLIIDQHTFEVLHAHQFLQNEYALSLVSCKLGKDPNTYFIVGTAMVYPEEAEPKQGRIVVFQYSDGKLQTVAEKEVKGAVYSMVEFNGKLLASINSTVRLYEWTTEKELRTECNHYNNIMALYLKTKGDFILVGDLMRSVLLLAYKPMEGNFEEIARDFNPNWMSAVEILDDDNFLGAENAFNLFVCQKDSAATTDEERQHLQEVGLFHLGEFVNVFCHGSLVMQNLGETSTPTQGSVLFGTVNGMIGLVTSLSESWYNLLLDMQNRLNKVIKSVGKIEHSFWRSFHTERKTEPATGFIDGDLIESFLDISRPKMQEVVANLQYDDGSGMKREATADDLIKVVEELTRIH", "assay": "AIOLOS degradation in OCI-LY10 (DC50)", "format": "cell-based"}, "[5]": {"test_system": "U2932", "assay": "U2932 viability, CTG", "format": "cell-based", "details": "Homo sapiens, U2932"}, "[6]": {"test_system": "cytokines induced by TLR stimuli", "assay": "Human whole blood cytokine release assays", "format": "cell-based", "details": "compared with IRAK4 inhibition with PF-06550833, FIG. 16", "method": "Fresh human whole blood was collected in Na Heparin tubes and received from […] same day as collection. 200 uL of whole blood was aliquoted per well into a 96 well plate. Whole blood was pre-incubated with compounds overnight at 37° C., 5% CO2. Following compound incubation, samples were stimulated with […] (invivogen #tlrl-r848), LPS 10 ng/mL (Sigma #L2637) or IL-1β 25 ng/mL (R&D systems 201-LB) and incubated for an additional 5 hours. At the end of the assay, blood was spun down for 15 min at 4° C. and plasma was collected and immediately stored at −80° C. Cytokine and chemokine levels were measured by custom ordered U-plex MSD panels (panel 1: IFNy, IL-10, IL-1β, IL-6, IL-8, TNFα) and (panel 2: IP-10, MIP1-α, MIP-1β, IL-12/IL-23p40, GROα)."}, "[7]": {"test_system": "Wistar Strain rats", "assay": "MSU induced gouty arthritis (knee inflammation) in rats", "format": "in vivo", "details": "prophylactic treatment, MSU-induced knee inflammation rat model", "method": "The anti-inflammatory efficacy and pain reduction for prophylactic treatment in an MSU-induced knee inflammation rat model of human gout was evaluated. See Kou, Y-Y et al., Evid-Based Compl. Alt. (doi: http://dx.doi.org/10.1155/2015/527019).\nPreparation of MSU crystals: 4 g uric acid is dissolved in 800 ml 0.03N NaOH and heated to 60° C. NaOH is added as required to maintain pH 8.9. The solution is stored overnight at 4-8° C. Crystals are filtered, washed and dried. Crystals are suspended in sterile saline just prior to use.\nEfficacy Study: Receive and quarantine 70 Wistar Strain rats (male, 250-300 g). Following quarantine, rats are accepted for the Study if no signs of clinical distress are noted during the 3-day quarantine period. […] The rat weights are recorded. […] Baseline readings are taken on DAY −3. Baseline knee diameters are measured by digital caliper. Baseline responses to mechanical allodynia, as measured by von Frey fibers, are recorded. […]\nDAY 1: Rats are weighed and dosed as in Table 14. One hour after dosing, mechanical allodynia and knee diameters are measured and recorded.\nDAY 2: Rats are weighed and dosed as in Table 14 One hour after dosing, mechanical allodynia and knee diameters are measured and recorded. […]\nResults are tabulated, graphed and statistically analyzed for anti-inflammatory efficacy and pain reduction."}, "[8]": {"test_system": "SU-DHL6", "assay": "SU-DHL6 viability, CTG", "format": "cell-based", "details": "Homo sapiens, SU-DHL-6"}}, "note": "Read-outs that look alike come from different tables or passages of the source.", "data": [{"smiles": "CN(CCCOCCCc1cccc2c1n(C)c(=O)n2C1CCC(=O)NC1=O)C[C@H]1CC[C@H](n2cc(NC(=O)c3coc(-c4ccnc(NCC5CC5)c4)n3)c(C(F)F)n2)CC1", "note": "(mixture of isomers) [I-30, 2-[2-(Cyclopropylmethylamino)-4-pyridyl]-N-[3-(difluoromethyl)-1-[4-[[3-[3-[1-(2,6-dioxo-3-piperidyl)-3-methyl-2-oxo-benzimidazol-4-yl]propoxy]propyl-methyl-amino]methyl]cyclohexyl]pyrazol-4-yl] oxazole-4-carboxamide]", "values": [{"measurement": "induction of apoptosis in OCI-LY10 lymphoma line", "setting": "[1]", "value": "induces apoptosis"}]}, {"smiles": "CN(C[C@H]1CC[C@H](n2cc(NC(=O)c3coc(-c4ccnc(NCC5CC5)c4)n3)c(C(F)F)n2)CC1)C1CCN(Cc2cccc3c2n(C)c(=O)n3C2CCC(=O)NC2=O)CC1", "note": "(stereo partly drawn) [I-75, 2-(2-((cyclopropylmethyl)amino)pyridin-4-yl)-N-(3-(difluoromethyl)-1-((1r,4r)-4-(((1-((1-(2,6-dioxopiperidin-3-yl)-3-methyl-2-oxo-2,3-dihydro-1H-benzo[d]imidazol-4-yl)methyl)piperidin-4-yl)(methyl)amino)methyl)cyclohexyl)-1H-pyrazol-4-yl)oxazole-4-carboxamide]", "values": [{"measurement": "IC50", "setting": "[2]", "value": 180, "unit": "nM"}, {"measurement": "oral bioavailability", "setting": "[3]; rat, dog, and monkey", "value": "oral bioavailable"}, {"measurement": "oral exposure in plasma", "setting": "[3]; up to 300 mg/kg", "value": "dose proportional oral exposure in plasma"}, {"measurement": "DC50", "setting": "[4]", "value": "> 100", "unit": "nM"}, {"measurement": "IC50", "setting": "[5]; MYD88 WT Lines, read-out: U2932 Viability, CTG IC50", "value": 374, "unit": "nM"}, {"measurement": "IC50", "setting": "[5]; MYD88 WT, read-out: U2932 CTG IC50", "value": 374, "unit": "nM"}, {"measurement": "range of cytokines inhibited, induced by different TLR stimuli", "setting": "[6]", "value": "inhibits a broader range of cytokines"}, {"measurement": "knee joint swelling", "setting": "[7]; FIG. 17 A", "value": "decreasing knee joint swelling"}, {"measurement": "pain sensitivity", "setting": "[7]; FIG. 17 B", "value": "analgesic effect"}, {"measurement": "IC50", "setting": "[8]; MYD88 WT Lines, read-out: SU-DHL6 Viability, CTG IC50", "value": 1600, "unit": "nM"}, {"measurement": "IC50", "setting": "[8]; MYD88 WT, read-out: SU-DHL6 CTG IC50", "value": 1600, "unit": "nM"}]}]}
